How the values were obtained:
[1] = target: PIM (PIM-1, PIM-2, and/or PIM-3); test: PIM-1, PIM-2 and PIM-3 inhibition, biochemical chemiluminescence assays (Kinase Glo, IC50 determination); details: Table 1 activity class; PIM refers to PIM-1, PIM-2, and/or PIM-3; read-out: PIM IC50 (Activity B)
Description: (§1) The IC50 evaluation of compounds against the PIM-1 oncogene was performed in a Chemiluminesence assay utilizing a Greiner 384-well white medium binding white plate format. […] Following an incubation period of 120 minutes at ambient temperature (24-27° C.), 10 μL of Kinase Glo (Promega) was added. The luminescence was measured following a Luminescence Protocol on a Victor plate reader.
as §1, with “PIM-2” for “PIM-1”, “format. […] The assay procedure involves compound dilution followed by addition of 3 nM PIM-2 to the designated well plates and subsequent pre-incubation of the compounds with the enzyme for 30 minutes at ambient temperature (24-27° C.).” for “format.”
as §1, with “PIM-3 Oncogene” for “PIM-1 oncogene”

[2] = target: CK2 (Homo sapiens, UniProt P68400); test: CK2 inhibition, biochemical chemiluminescence holoenzyme assay (Kinase Glo, IC50 determination); details: Table 1 activity class; symbol given only if active; read-out: CK2 IC50 (Activity C)
Description: Characterization of CK2 Inhibition in a Biochemical Chemiluminesence Assay (IC50 Determination):
The IC50 evaluation of compounds against CK2 was performed in a Chemiluminesence Holoenzyme assay utilizing a Greiner 384-well white medium binding white plate format. […] The assay procedure involves the compound dilution scheme followed by addition of 10 μL of the substrate twice, followed by 10 μL twice of the respective enzyme or buffer to the designated well plates and subsequent pre-incubation of the compounds. Following an incubation period of 150 minutes at ambient temperature (24-27° C.), 10 μL of Kinase Glo (Promega) was added. The luminescence was measured following a Luminescence Protocol on a Victor plate reader.

Chain of CK2 (P68400 whole entry): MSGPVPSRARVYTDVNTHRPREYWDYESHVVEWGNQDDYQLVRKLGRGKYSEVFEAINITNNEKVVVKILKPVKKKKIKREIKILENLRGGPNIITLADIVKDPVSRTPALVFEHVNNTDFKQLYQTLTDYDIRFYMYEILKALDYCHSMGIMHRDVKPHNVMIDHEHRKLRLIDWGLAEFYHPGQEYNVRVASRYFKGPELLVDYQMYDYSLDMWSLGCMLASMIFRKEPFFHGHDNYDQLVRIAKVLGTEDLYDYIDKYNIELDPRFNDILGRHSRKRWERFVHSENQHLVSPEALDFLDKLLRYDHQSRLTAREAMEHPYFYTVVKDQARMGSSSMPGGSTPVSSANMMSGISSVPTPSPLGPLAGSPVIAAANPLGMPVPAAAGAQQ
Chain of CK2 (P67870 whole entry partner): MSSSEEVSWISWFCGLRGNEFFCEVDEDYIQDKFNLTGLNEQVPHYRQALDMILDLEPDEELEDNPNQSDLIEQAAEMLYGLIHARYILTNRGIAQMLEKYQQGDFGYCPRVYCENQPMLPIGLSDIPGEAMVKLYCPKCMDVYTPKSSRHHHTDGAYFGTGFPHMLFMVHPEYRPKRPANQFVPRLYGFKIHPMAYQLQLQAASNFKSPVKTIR

Q: With CN1CCN(c2ccc(CNCc3nc4c(oc5ccc(Br)cc54)c(=O)[nH]3)cc2)CC1 [Compound 4, 8-bromo-2-[({[4-(4-methylpiperazin-1-yl)phenyl]methyl}amino)methyl][1]benzofuro[3,2-d]pyrimidin-4(3H)-one] as the compound, how does the IC50 [1] read?
A: < 10 µM

Q: What about the IC50 [2] of the same compound?
A: < 10 µM

Q: For O=c1[nH]c(Cn2ccnc2)nc2c1oc1ccc(Br)cc12 [Compound 6, 8-bromo-2-(1H-imidazol-1-ylmethyl)[1]benzofuro[3,2-d]pyrimidin-4(3H)-one], which IC50 [1] is on record?
A: < 10 µM

Q: What about the IC50 [2] of the same compound?
A: < 10 µM

Q: What does the source list for CN(C)c1ccccc1CNCc1nc2c(oc3ccc(Br)cc32)c(=O)[nH]1 [Compound 10, 8-bromo-2-[({[2-(dimethylamino)phenyl]methyl}amino)methyl][1]benzofuro[3,2-d]pyrimidin-4(3H)-one]?
A: IC50 [1]: < 10 µM; IC50 [2]: < 10 µM

Q: How did the IC50 [1] turn out when O=c1[nH]c(CNc2ccccc2Cl)nc2c1oc1ccc(Br)cc12 [Compound 11, 8-bromo-2-{[(2-chlorophenyl)amino]methyl}[1]benzofuro[3,2-d]pyrimidin-4(3H)-one] was run?
A: < 10 µM

Q: And the IC50 [2]?
A: < 10 µM

Q: Which IC50 [2] does the source give for O=c1[nH]c(CNc2cccc(F)c2)nc2c1oc1ccc(Br)cc12 [Compound 12, 8-bromo-2-{[(3-fluorophenyl)amino]methyl}[1]benzofuro[3,2-d]pyrimidin-4(3H)-one] here?
A: < 10 µM

Q: How did the IC50 [1] turn out when CN1CCN(c2cccc(CNCc3nc4c(oc5ccc(Br)cc54)c(=O)[nH]3)c2)CC1 [Compound 14, 8-bromo-2-[({[3-(4-methylpiperazin-1-yl)phenyl]methyl}amino)-methyl][1]benzofuro[3,2-d]pyrimidin-4(3H)-one] was run?
A: < 10 µM

Q: What about the IC50 [2] of the same compound?
A: < 10 µM

Q: What does the source list for O=c1[nH]c(COc2ccccc2)nc2c1oc1ccc(Br)cc12 [Compound 15, 8-bromo-2-[(phenyloxy)methyl][1]benzofuro[3,2-d]pyrimidin-4(3H)-one]?
A: IC50 [1]: < 10 µM; IC50 [2]: < 10 µM

Q: With O=c1[nH]c(CNc2ccccc2)nc2c1oc1ccc(Br)cc12 [Compound 16, 8-bromo-2-[(phenylamino)methyl][1]benzofuro[3,2-d]pyrimidin-4(3H)-one] as the compound, how does the IC50 [1] read?
A: < 10 µM

Q: What about the IC50 [2] of the same compound?
A: < 10 µM

Q: What does the source list for CN(C)C1CCN(Cc2nc3c(oc4ccc(Br)cc43)c(=O)[nH]2)C1 (stereo not drawn) [Compound 17, 8-bromo-2-{[3-(dimethylamino)pyrrolidin-1-yl]methyl}[1]benzofuro[3,2-d]pyrimidin-4(3H)-one]?
A: IC50 [1]: < 10 µM; IC50 [2]: < 10 µM

Q: Which results are given for CN(Cc1nc2c(oc3ccc(Br)cc32)c(=O)[nH]1)c1ccccc1Cl [Compound 18, 8-bromo-2-{[(2-chlorophenyl)(methyl)amino]methyl}[1]benzofuro[3,2-d]pyrimidin-4(3H)-one]?
A: IC50 [1]: < 10 µM; IC50 [2]: < 10 µM

Q: What does the source list for O=c1[nH]c(CNc2ccccc2F)nc2c1oc1ccc(Br)cc12 [Compound 19, 8-bromo-2-{[(2-fluorophenyl)amino]methyl}[1]benzofuro[3,2-d]pyrimidin-4(3H)-one]?
A: IC50 [1]: < 10 µM; IC50 [2]: < 10 µM

Q: For CN(C)c1cccc(CNCc2nc3c(oc4ccc(Br)cc43)c(=O)[nH]2)c1 [Compound 21, 8-bromo-2-[({[3-(dimethylamino)phenyl]methyl}amino)methyl][1]benzofuro[3,2-d]pyrimidin-4(3H)-one], which IC50 [1] is on record?
A: < 10 µM

Q: What about the IC50 [2] of the same compound?
A: < 10 µM

Q: How did the IC50 [1] turn out when O=c1[nH]c(CN2CCOCC2)nc2c1oc1ccc(Br)cc12 [Compound 24, 8-bromo-2-(morpholin-4-ylmethyl)[1]benzofuro[3,2-d]pyrimidin-4(3H)-one] was run?
A: < 10 µM

Q: What about the IC50 [2] of the same compound?
A: < 10 µM

Q: Which results are given for O=c1[nH]c(-c2c(Cl)cccc2Cl)nc2c1oc1ccc(Br)cc12 [Compound 36, 8-Bromo-2-(2,6-dichlorophenyl)[1]benzofuro[3,2-d]pyrimidin-4(3H)-one]?
A: IC50 [1]: < 10 µM; IC50 [2]: < 10 µM

Q: What does the source list for O=c1[nH]c(-c2cc(Cl)ccc2Cl)nc2c1oc1ccc(Br)cc12 [Compound 37, 8-Bromo-2-(2,5-dichlorophenyl)[1]benzofuro[3,2-d]pyrimidin-4(3H)-one]?
A: IC50 [1]: < 10 µM; IC50 [2]: < 10 µM

Q: O=c1[nH]c(-c2ccccc2Br)nc2c1oc1ccc(Br)cc12 [Compound 38, 8-Bromo-2-(2-bromophenyl)[1]benzofuro[3,2-d]pyrimidin-4(3H)-one] was tested. Which IC50 [1] did it give?
A: < 10 µM

Q: And the IC50 [2]?
A: < 10 µM

Q: Which IC50 [1] does the source give for CN(C)c1ccc(-c2nc3c(oc4ccc(Br)cc43)c(=O)[nH]2)c(Cl)c1 [Compound 41, 8-bromo-2-[2-chloro-4-(dimethylamino)phenyl][1]benzofuro[3,2-d]pyrimidin-4(3H)-one] here?
A: < 10 µM

Q: What about the IC50 [2] of the same compound?
A: < 10 µM

Q: For Cc1cc(N)ccc1-c1nc2c(oc3ccc(Br)cc32)c(=O)[nH]1 [Compound 50, 2-(4-amino-2-methylphenyl)-8-bromo[1]benzofuro[3,2-d]pyrimidin-4(3H)-one], which IC50 [1] is on record?
A: < 10 µM

Q: What about the IC50 [2] of the same compound?
A: < 10 µM

Q: For O=c1[nH]c(-c2ccccc2O)nc2c1oc1ccc(Br)cc12 [Compound 51, 8-bromo-2-(2-hydroxyphenyl)[1]benzofuro[3,2-d]pyrimidin-4(3H)-one], which IC50 [1] is on record?
A: < 10 µM

Q: What about the IC50 [2] of the same compound?
A: < 10 µM

Q: Which IC50 [1] does the source give for O=C(Nc1ccc(Cl)c(-c2nc3c(oc4ccc(Br)cc43)c(=O)[nH]2)c1)c1cccnc1 [Compound 327, N-[3-(8-bromo-4-oxo-3,4-dihydro[1]benzofuro[3,2-d]pyrimidin-2-yl)-4-chlorophenyl]pyridine-3-carboxamide] here?
A: < 10 µM

Q: With O=C(Nc1ccc(Cl)c(-c2nc3c(oc4ccc(Br)cc43)c(=O)[nH]2)c1)c1ccc(Br)cn1 [Compound 338, 5-bromo-N-[3-(8-bromo-4-oxo-3,4-dihydro[1]benzofuro[3,2-d]pyrimidin-2-yl)-4-chlorophenyl]pyridine-2-carboxamide] as the compound, how does the IC50 [1] read?
A: < 10 µM

Q: Which IC50 [1] does the source give for COc1ccc(C(=O)Nc2ccc(Cl)c(-c3nc4c(oc5ccc(Br)cc54)c(=O)[nH]3)c2)cn1 [Compound 357, N-[3-(8-bromo-4-oxo-3,4-dihydro[1]benzofuro[3,2-d]pyrimidin-2-yl)-4-chlorophenyl]-6-(methyloxy)pyridine-3-carboxamide] here?
A: < 10 µM

Q: How did the IC50 [1] turn out when CN1CCN(Cc2nc3c(oc4ccc(F)cc43)c(=O)[nH]2)CC1 [Compound 367, 8-Fluoro-2-[(4-methylpiperazin-1-yl)methyl][1]benzofuro[3,2-d]pyrimidin-4(3H)-one] was run?
A: < 10 µM

Q: With O=c1[nH]c(C(c2ccccc2)N2CCNCC2)nc2c1oc1ccc(Br)cc12 (stereo not drawn) [Compound 384, 8-bromo-2-[phenyl(piperazin-1-yl)methyl][1]benzofuro[3,2-d]pyrimidin-4(3H)-one] as the compound, how does the IC50 [1] read?
A: < 10 µM

Q: For O=C(Nc1ccc(Cl)c(-c2nc3c(oc4ccc(Br)cc43)c(=O)[nH]2)c1)C1CCNCC1 [Compound 392, ′N-[3-(8-bromo-4-oxo-3,4-dihydro[1]benzofuro[3,2-d]pyrimidin-2-yl)-4-chlorophenyl]piperidine-4-carboxamide], which IC50 [1] is on record?
A: < 10 µM

Q: Nc1ccc(-c2nc3c(oc4ccccc43)c(=O)[nH]2)c(Cl)c1 [Compound 399, 2-(4-amino-2-chlorophenyl)[1]benzofuro[3,2-d]pyrimidin-4(3H)-one] was tested. Which IC50 [1] did it give?
A: < 10 µM

Q: CN1CCN(Cc2nc3c(nc4ccc(Br)cn43)c(=O)[nH]2)CC1 [Compound 417, 8-bromo-2-[(4-methylpiperazin-1-yl)methyl]pyrido[1,2-e]purin-4(3H)-one] was tested. Which IC50 [1] did it give?
A: < 10 µM

Q: Which IC50 [1] does the source give for O=c1[nH]c(CN2CC[C@H](O)C2)nc2c1nc1ccc(Br)cn12 [Compound 418, 8-bromo-2-{[(3S)-3-hydroxypyrrolidin-1-yl]methyl}pyrido[1,2-e]purin-4(3H)-one] here?
A: < 10 µM

Q: For O=c1[nH]c(-c2ccc3nc[nH]c3c2)nc2c1oc1ccc(Br)cc12 [Compound 423, 2-(1H-benzimidazol-6-yl)-8-bromo[1]benzofuro[3,2-d]pyrimidin-4(3H)-one], which IC50 [1] is on record?
A: < 10 µM

Q: With O=c1[nH]c(CN2CC[C@H](O)C2)nc2c1oc1ccc(NC3CCCCC3)cc12 [Compound 449, 8-(cyclohexylamino)-2-{[(3S)-3-hydroxypyrrolidin-1-yl]methyl}[1]benzofuro[3,2-d]pyrimidin-4(3H)-one] as the compound, how does the IC50 [1] read?
A: < 10 µM

Q: Which IC50 [1] does the source give for CN1CCN(Cc2nc3c(oc4ccc(C#CCO)cc43)c(=O)[nH]2)CC1 [Compound 450, 8-(3-hydroxyprop-1-yn-1-yl)-2-[(4-methylpiperazin-1-yl)methyl][1]benzofuro[3,2-d]pyrimidin-4(3H)-one] here?
A: < 10 µM

Q: How did the IC50 [2] turn out when COc1ccc2oc3c(=O)[nH]c(-c4ccc(N)cc4Cl)nc3c2c1 [Cpd 129, 2-(4-amino-2-chlorophenyl)-8-(methyloxy)[1]benzofuro[3,2-d]pyrimidin-4(3H)-one] was run?
A: < 10 µM

Q: Which IC50 [2] does the source give for COc1ccc2oc3c(=O)[nH]c(-c4ccc(NCC5CCN(C(=O)OC(C)(C)C)CC5)cc4Cl)nc3c2c1 [Cpd 137, 1,1-dimethylethyl 4-[({3-chloro-4-[8-(methyloxy)-4-oxo-3,4-dihydro[1]benzofuro[3,2-d]pyrimidin-2-yl]phenyl}amino)methyl]piperidine-1-carboxylate] here?
A: < 10 µM

Source: patent publication US20090247559A1 (Exelixis, Inc., priority 2007, published 2009)
